Assay results published in patent US9132099B2, “Medical implants and methods for regulating the tissue response to vascular closure devices” (Vascular Therapies LLC, priority 2001, dated 2015).
Starred links: 1 amine or outer side, 2 acyl side, 3 side chain; linkers in the order of their positions; H or OH if unused. Positions of bridges follow the written chain, without caps; N, C: chain ends. Non-standard residues stand in square brackets, D forms with d. Residues, ends and D or L forms follow the SMILES beside them. Chains are numbered I, II in the order given. Actinocin(9to1) = Cc1c2oc3c(C)ccc(C(=O)[*:1])c3nc-2c(C(=O)[*:2])c(N)c1=O; NMeV = CN[C@H](C(=O)O)C(C)C; Sar = CNCC(=O)O

What was measured:
[1] = In vitro elution of heparin from collagen-fibrin sleeve with rapamycin and heparin; assay type: physicochemical; settings: for Eluted Heparin Mass: buffer replenished each day
Excerpt: Combining macro- and micro-porosity may increase capacity of the device. Collagen and fibrin matrices were mixed to obtain such a combination. In addition, good mechanical characteristics of collagen improved stability of fibrin.
The collagen fibrin sheaths loaded with medicine (thickness 2 mm) were formed as tubular structures and externally crosslinked using high a concentration of glutaraldehyde (25%) for one minute. This sleeve was made planar on ten occasions, and the spiral shape was restored each time. […] In vitro elution of heparin continues for seven days. Heparin concentration was measured as in Example 10. Buffer for the dilution was replenished each day.

[2] = tested on: smooth muscle cell; test: Heparin inhibition of smooth muscle cell proliferation; assay type: cell-based
Excerpt: In addition, diffusion of heparin from the sleeve can prevent thrombotic events on the inner surface of the shunt and damaged vessel wall for longer periods of time. Furthermore, the concentration of soluble heparin can be increased up to 20,000 U/cm^2 without changing the mechanical characteristics of the matrix. Therefore, anti-smooth muscle cell proliferation as well as antithrombotic effect can be prolonged.

[3] = tested on: Human Smooth Muscle Cells; test: [3H]-thymidine uptake assay, human smooth muscle cells; assay type: cell-based
Experimental: (§1) Human smooth muscle cells and endothelial cells (Cambrex Corp., formerly Clonetics Corp., East Rutherford, N.J.) were seeded (100,000 cells) in 24-well plates overnight. Both cell types were grown and maintained in Opti-MEM (Invitrogen, Carlsbad, Calif.) and 5% fetal bovine serum at 37° C. in a 5% carbon dioxide and 95% atmospheric air. […] Each cell type was allowed to grow for […], last four hours in the presence of [^3H]-thymidine.
(§2) Proliferation of cells was quantified as new DNA synthesis using [^3H]-thymidine uptake assay. After 72 hours of culture, cells were washed twice with cold phosphate buffered saline (PBS), and 1 ml of methanol was added to the contents of each well. The plates were kept at 4° C. for 60 minutes, the cells then washed once with cold PBS, and 500 μl of 0.2 m M NaOH was added to each well, and the plates kept at 4° C. for 30 minutes. The contents of each well were transferred into scintillation vials, and liquid scintillation fluid was added to quantify radioactivity using a liquid scintillation counter and the results expressed as counts per minute. Results are shown in Tables 12 and 13 and corresponding FIGS. 16 and 17, respectively.

[4] = tested on: Human Endothelial Cells; test: [3H]-thymidine uptake assay, human endothelial cells; assay type: cell-based
Experimental: as §1, §2

[5] = tested on: SMC; test: Smooth muscle cell inhibition on drug-saturated collagen matrix discs; assay type: cell-based; settings: collagen matrix disc, compound about 5 μg/cm^2, cells counted five days later
Experimental: (§3) Prefabricated collagen matrices were placed in different antiproliferative drug solutions until complete saturation occurred. […] The collagen matrices were saturated with these compounds at a concentration of 25 μg/ml lyophilized, washed with 0.066 M phosphate buffer of pH 7.4 at 37° C. for 24 hours and cut in the shape of a disc with density of compound of about 5 μg/cm^2. After washing, sterile discs 15 mm in diameter were placed in a 24-well culture plate, and cells were seeded at a density of 5,000/cm^2. Five days later, cell number was counted and enzymatic activity evaluated in the aliquots of media by chromogenic substrate hydrolysis and spectrophotometry.

[6] = tested on: Fibroblast; test: Fibroblast inhibition on drug-saturated collagen matrix discs; assay type: cell-based; settings: collagen matrix disc, compound about 5 μg/cm^2, cells counted five days later
Experimental: as §3

[7] = tested on: Collagenase; test: Collagenase activity in culture media, chromogenic substrate hydrolysis; assay type: biochemical; settings: aliquots of media, five days, plain matrix = 100
Experimental: as §3, with “spectrophotometry. Among the tested agents in this comparative in vitro test, paclitaxel and rapamycin (sirolimus) performed similarly.” for “spectrophotometry.”

[8] = Rate of drug release from collagen matrix in vitro, batch assay; assay type: physicochemical; settings: collagen matrix saturated with the drug
Experimental: Aliquots are collected at various time intervals from the wells. A combination of dispersed and conjugated forms is also prepared. […] The samples are placed in wells and 1 ml of elution media containing serum are added. Aliquots are taken every hour.
These measurements are made using batch assay and, therefore, represent release rates at 0 ml/min flow rate. The results are tabulated in Table 7 and graphically illustrated in FIG. 14. Concentrations of the antiproliferative drug are in μg/ml.

[9] = tested on: smooth muscle cells; test: Growth of smooth muscle cells seeded on collagen matrices; assay type: cell-based; settings: with changes of media, 7 days observation
Experimental: To evaluate this parameter, smooth muscle cells at a density of 5,000 cells/cm^2 are seeded onto control tissue culture surface and testing matrices.

[10] = tested on: PTFE vascular graft AV loop, venous anastomosis; test: Porcine PTFE arterio-venous graft model with perivascular rapamycin collagen sleeve; assay type: in vivo; settings: pigs
Experimental: A proof of principle study was performed using a porcine model. A total of six pigs were studied, two as controls and four as treated. A 6 mm PTFE vascular graft was anastomosed between the carotid artery on one side and the contralateral jugular vein. This created an arterio-venous (AV) loop that is similar in construction to the human hemodialysis access loop.
The animals were euthanized and the relevant segments dissected. […] Tissues from treated and untreated animals were obtained, and RNA was prepared and reverse transcribed to cDNA, which was amplified for housekeeping gene b-actin and p21 by PCR.

[11] = tested on: PTFE A-V graft, venous anastamosis; test: PTFE A-V graft study, histological scoring of graft explants; assay type: in vivo
Excerpt: A 6.0 mm PTFE graft was anastamosed between the carotid artery and the jugular vein. A total of 19 animals were utilized for this study. At the time of surgical construction of the A-V graft, collagen matrix with or without the drug was implanted at the site of venous anastamosis. Five animals served as controls (Group A, plain collagen matrix, no drug); the remaining 14 animals received treatment. They were divided into two equal groups (B and C) of seven animals each. […] Animals (n=13) were euthanized after 1 month. Tissues were formalin fixed and sent for histology.
Histological assessment of graft explants was performed by examining the following components: (1) the venous anastamotic site; (a) luminal and (b) adventitial surfaces, (2) the venous end away from the anastamosis; (c) luminal and (d) adventitial surfaces and (3) the PTFE graft; (e) luminal and (f) abluminal surfaces away from the anastamosis (FIG. 2). The following parameters were evaluated: intimal thickening, inflammation, thrombus, fibrosis, hemorrhage/fibrin and calcification or any other pathological changes observed. Histological evaluation was scored on a 0 through 4 scale, where 0=no significant change, 1=minimal, 2=mild, 3=moderate and 4=severe.
P-values obtained from semiquantitative analysis of histological findings using ANOVA (t-test unpaired).

[12] = tested on: smooth muscle cell; test: Inhibitory concentrations for smooth muscle cell in culture media
[13] = tested on: Elastase; test: Elastase activity in culture media, chromogenic substrate hydrolysis; assay type: biochemical; settings: aliquots of media, five days, plain matrix = 100
Experimental: as §3

[14] = In vitro elution of dexamethasone from collagen matrix; settings: by HPLC

For Heparin, the “duration of in vitro elution of heparin” value [1] was “seven”, the “Eluted Heparin Mass” value ([1]; Time 0 days) was 0 u/ml and the “Eluted Heparin Mass” value ([1]; Time 1 days) was 341 u/ml. The “Eluted Heparin Mass” value ([1]; Time 2 days) was 275 u/ml, the “Eluted Heparin Mass” value ([1]; Time 3 days) was 188 u/ml and the “Eluted Heparin Mass” value ([1]; Time 4 days) was 103 u/ml. The “Eluted Heparin Mass” value ([1]; Time 5 days) was 57 u/ml, the “Eluted Heparin Mass” value ([1]; Time 6 days) was 24 u/ml and the “Eluted Heparin Mass” value ([1]; Time 7 days) was 8 u/ml. The “time for which eluted heparin can significantly inhibit smooth muscle cell proliferation” value ([1]; from the elution profile and about 100 u/ml) was “at least four” and the “concentration that effectively inhibits smooth muscle cell proliferation” value [2] was “about 100 u/ml”.
For `C=CC[C@@H]1/C=C(\C)C[C@H](C)C[C@H](OC)[C@H]2O[C@@](O)(C(=O)C(=O)N3CCCC[C@H]3C(=O)O[C@H](/C(C)=C/[C@@H]3CC[C@@H](O)[C@H](OC)C3)[C@H](C)[C@@H](O)CC1=O)[C@H](C)C[C@@H]2OC` [Tacrolimus], the “effect on proliferation (new DNA synthesis)” value (shortened to “effect on proliferation”) [3] was “preferentially inhibit new DNA synthesis in human smooth muscle cells” and the “effect on proliferation” value [4] was “sparing endothelial cells”.
In the case of `CO[C@H]1C[C@@H]2CC[C@@H](C)[C@@](O)(O2)C(=O)C(=O)N2CCCC[C@H]2C(=O)O[C@H]([C@H](C)C[C@@H]2CC[C@@H](O)[C@H](OC)C2)CC(=O)[C@H](C)/C=C(\C)[C@@H](O)[C@@H](OC)C(=O)[C@H](C)C[C@H](C)/C=C/C=C/C=C/1C` [Rapamycin, (3S,6R,7E,9R,10R,12R,14S,15E,17E,19E,21S,23S,26R,27R,34aS)-9,10,12,13,14,21,22,23,24,25,26,27,32,33,34,34a-hexadecahydro-9,27-dihydroxy-3-[(1R)-2[(1S,3R,4R)-4-hydroxy-3-methoxycyclohexyl]-1-methylethyl]10,21-dimethoxy-6,8,12,14,20,26-hexamethyl-23,27-epoxy-3H-pyrido[2,1-c][1,4] oxaazacyclohentriacontine-1,5,11,28,29 (4H,6H,31H)-pentone], the “SMC Inhibition %” value [5] is reported as 94 ± 5%, the “Fibroblast Inhibition %” value [6] is reported as 90 ± 12% and the “Collagenase Activity %” value [7] is reported as 137 ± 8%. For the same molecule, the “time of peak release from saturated collagen matrix” value [8] was “about seven”, the “duration of suppression of cell growth” value [9] was “suppression of cell growth continued throughout the observation period” and the “effect on proliferation” value [3] was “inhibit proliferation”. The “effect on proliferation” value [4] was “inhibit proliferation”, the “Expression of p21 mRNA in venous tissue at the perianastamotic site” value ([10]; 30 days, PCR, not in controls) was “observed” and the “neointimal hyperplasia at venous anastomosis” value ([10]; collagen sleeve approximately 500 μg/cm^2, 30 days) was “minimal to absent”. The “luminal patency of the vein and the graft” value ([10]; collagen sleeve approximately 500 μg/cm^2, 30 days, vs controls) was “significantly higher luminal patency”, the Collagen degradation ([11]; Dose 2 compared with the control group) was “significant” and the degree of fibrosis ([11]; control group vs. treatment groups) was “significant difference”. For the same molecule, the degree of inflammation ([11]; treated vs controls) was “no statistical difference” and the “Inhibitory concentrations for smooth muscle cell” value [12] was 0.001 to 0.005 µg/mL.
With `CN(Cc1cnc2nc(N)nc(N)c2n1)c1ccc(C(=O)N[C@@H](CCC(=O)O)C(=O)O)cc1` [Methotrexate] the “SMC Inhibition %” value [5] was 32 ± 9%, the “Fibroblast Inhibition %” value [6] was 28 ± 6% and the “Collagenase Activity %” value [7] was 23 ± 12%. For the same molecule, the “Elastase Activity %” value [13] was 14 ± 3%.
With `CN(C)[C@@H]1C(O)=C(C(N)=O)C(=O)[C@@]2(O)C(O)=C3C(=O)c4c(O)cccc4[C@@](C)(O)[C@H]3C[C@@H]12` [Tetracycline] the “SMC Inhibition %” value [5] was 11 ± 8% and the “Fibroblast Inhibition %” value [6] was 13 ± 5%.
In the case of `C[C@@H]1C[C@H]2[C@@H]3CCC4=CC(=O)C=C[C@]4(C)[C@@]3(F)[C@@H](O)C[C@]2(C)[C@@]1(O)C(=O)CO` [Dexamethasone], the “Chemical stability through sheet formation, drying storage, and elution process” value [14] is reported as “confirmed”.
For `CC(=O)O[C@H]1C(=O)[C@@]2(C)[C@H]([C@H](OC(=O)c3ccccc3)[C@]3(O)C[C@H](OC(=O)[C@H](O)[C@@H](NC(=O)c4ccccc4)c4ccccc4)C(C)=C1C3(C)C)[C@]1(OC(C)=O)CO[C@@H]1C[C@@H]2O` [Paclitaxel], the “SMC Inhibition %” value [5] was 88 ± 6%, the “Fibroblast Inhibition %” value [6] was 62 ± 11% and the “Collagenase Activity %” value [7] was 98 ± 5%. For the same molecule, the “Elastase Activity %” value [13] was 90 ± 4%, the “effect on proliferation” value [3] was “inhibit proliferation” and the “effect on proliferation” value [4] was “inhibit proliferation”.
In the case of `Cc1c2oc3c(C)ccc(C(=O)N[C@@H]4C(=O)N[C@H](C(C)C)C(=O)N5CCC[C@H]5C(=O)N(C)CC(=O)N(C)[C@@H](C(C)C)C(=O)O[C@@H]4C)c3nc-2c(C(=O)N[C@@H]2C(=O)N[C@H](C(C)C)C(=O)N3CCC[C@H]3C(=O)N(C)CC(=O)N(C)[C@@H](C(C)C)C(=O)O[C@@H]2C)c(N)c1=O` [Actinomycin D] (I: T[dV]P[Sar][NMeV] / II: T[dV]P[Sar][NMeV]; ester I:1-I:C, II:1-II:C; linker I:N-II:N via Actinocin(9to1)), the “SMC Inhibition %” value [5] is reported as 44 ± 11%, the “Fibroblast Inhibition %” value [6] is reported as 35 ± 8% and the “Collagenase Activity %” value [7] is reported as 55 ± 9%. For the same molecule, the “Elastase Activity %” value [13] was 84 ± 11% and the “duration of suppression of cell growth” value [9] was “suppresses cell growth for only a short period of time”.
